Assay results from publication PMC7180948, “New Insights into 4-Anilinoquinazolines as Inhibitors of Cardiac Troponin I–Interacting Kinase (TNNi3K)” (Molecules, 2020).

What was measured:
Test in all cases: biochemical
Parameters in all cases: KINOMEscan competition binding panel (Eurofins DiscoverX), single concentration, percent inhibition
Conditions in all cases: read-out: 15 at 1 µM % inhibition
PRKD1 = PRKD1 (Homo sapiens, UniProt Q15139)
Procedure: (§1) KinomeScan® Assay on 7 and 15 was performed as previously described by EuroFins DiscoverX [24]. GSK114 (7) and 15 were submitted for a KINOMEscan® assay to explore the selectivity profile across >400 human kinases at a compound concentration of 1 µM. […] GSK114 (7) is a narrow-spectrum TNNi3K inhibitor but has some potent off-targets including GAK which has been previously reported for this chemotype. […] If utilized together this set of compounds could be useful to investigate TNNi3K biology.

SRPK3 = SRPK3 (Homo sapiens, UniProt Q9UPE1)
Procedure: as §1

TRKC = target: T1, TRKC (Homo sapiens, UniProt Q16288)
T1 construct: gene NTRK3
Procedure: as §1

YSK4 = target: T2, YSK4 (Homo sapiens, UniProt Q56UN5)
T2 construct: gene MAP3K19
Procedure: as §1

NEK6 = NEK6 (Homo sapiens, UniProt Q9HC98)
Procedure: as §1

FLT3 = FLT3 (Homo sapiens, UniProt P36888)
Procedure: as §1

MYLK = MYLK (Homo sapiens, UniProt Q15746)
Procedure: as §1

MTOR = MTOR (Homo sapiens, UniProt P42345)
Procedure: as §1

ALK = ALK (Homo sapiens, UniProt Q9UM73)
Procedure: as §1

FLT3(D835Y) = FLT3(D835Y) (Homo sapiens, UniProt P36888, D835Y)
Procedure: as §1

MAP3K3 = MAP3K3 (Homo sapiens, UniProt Q99759)
Procedure: as §1

FLT3(ITD) = FLT3(ITD) (Homo sapiens, UniProt P36888, ITD)
Procedure: as §1

HPK1 = target: T3, HPK1 (Homo sapiens, UniProt Q92918)
T3 construct: gene MAP4K1
Procedure: as §1

RIOK3 = RIOK3 (Homo sapiens, UniProt O14730)
Procedure: as §1

[1] = target: T4, RPS6KA4(Kin.Dom.2-C-terminal) (Homo sapiens, UniProt O75676)
T4 construct: Kin.Dom.2-C-terminal
Procedure: as §1

PIK3C2G = PIK3C2G (Homo sapiens, UniProt O75747)
Procedure: as §1

PYK2 = target: T5, PYK2 (Homo sapiens, UniProt Q14289)
T5 construct: gene PTK2B
Procedure: as §1

EPHB2 = EPHB2 (Homo sapiens, UniProt P29323)
Procedure: as §1

PRP4 = target: T6, PRP4 (Homo sapiens, UniProt Q13523)
T6 construct: gene PRPF4B
Procedure: as §1

SRMS = SRMS (Homo sapiens, UniProt Q9H3Y6)
Procedure: as §1

EPHA5 = EPHA5 (Homo sapiens, UniProt P54756)
Procedure: as §1

MKNK1 = MKNK1 (Homo sapiens, UniProt Q9BUB5)
Procedure: as §1

ACVR1B = ACVR1B (Homo sapiens, UniProt P36896)
Procedure: as §1

PIK3CG = PIK3CG (Homo sapiens, UniProt P48736)
Procedure: as §1

PRKD1, sequence (Q15139 whole entry): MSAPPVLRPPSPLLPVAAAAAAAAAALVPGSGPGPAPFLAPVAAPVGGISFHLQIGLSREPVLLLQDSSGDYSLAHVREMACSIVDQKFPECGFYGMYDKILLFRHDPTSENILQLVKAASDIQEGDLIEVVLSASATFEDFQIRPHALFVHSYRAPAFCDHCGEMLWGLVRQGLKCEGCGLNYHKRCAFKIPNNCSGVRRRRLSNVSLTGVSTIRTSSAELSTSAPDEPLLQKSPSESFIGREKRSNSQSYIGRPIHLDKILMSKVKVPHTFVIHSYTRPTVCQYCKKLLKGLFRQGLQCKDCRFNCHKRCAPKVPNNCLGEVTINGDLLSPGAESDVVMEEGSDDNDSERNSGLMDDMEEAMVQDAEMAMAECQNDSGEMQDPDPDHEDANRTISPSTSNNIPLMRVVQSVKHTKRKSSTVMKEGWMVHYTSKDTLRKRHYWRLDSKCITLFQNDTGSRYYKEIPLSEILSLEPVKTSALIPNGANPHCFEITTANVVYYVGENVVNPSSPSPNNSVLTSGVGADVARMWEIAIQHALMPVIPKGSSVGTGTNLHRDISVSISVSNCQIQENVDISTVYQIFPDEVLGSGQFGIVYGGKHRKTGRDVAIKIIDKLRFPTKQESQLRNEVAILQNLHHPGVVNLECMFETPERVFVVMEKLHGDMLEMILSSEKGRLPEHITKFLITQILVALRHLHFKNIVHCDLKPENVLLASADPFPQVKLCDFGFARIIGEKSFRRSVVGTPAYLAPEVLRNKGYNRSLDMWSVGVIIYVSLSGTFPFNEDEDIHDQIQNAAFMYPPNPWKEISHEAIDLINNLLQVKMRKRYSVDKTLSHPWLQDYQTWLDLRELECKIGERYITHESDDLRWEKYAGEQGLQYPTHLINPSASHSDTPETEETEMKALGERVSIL
EPHB2, sequence (P29323 whole entry): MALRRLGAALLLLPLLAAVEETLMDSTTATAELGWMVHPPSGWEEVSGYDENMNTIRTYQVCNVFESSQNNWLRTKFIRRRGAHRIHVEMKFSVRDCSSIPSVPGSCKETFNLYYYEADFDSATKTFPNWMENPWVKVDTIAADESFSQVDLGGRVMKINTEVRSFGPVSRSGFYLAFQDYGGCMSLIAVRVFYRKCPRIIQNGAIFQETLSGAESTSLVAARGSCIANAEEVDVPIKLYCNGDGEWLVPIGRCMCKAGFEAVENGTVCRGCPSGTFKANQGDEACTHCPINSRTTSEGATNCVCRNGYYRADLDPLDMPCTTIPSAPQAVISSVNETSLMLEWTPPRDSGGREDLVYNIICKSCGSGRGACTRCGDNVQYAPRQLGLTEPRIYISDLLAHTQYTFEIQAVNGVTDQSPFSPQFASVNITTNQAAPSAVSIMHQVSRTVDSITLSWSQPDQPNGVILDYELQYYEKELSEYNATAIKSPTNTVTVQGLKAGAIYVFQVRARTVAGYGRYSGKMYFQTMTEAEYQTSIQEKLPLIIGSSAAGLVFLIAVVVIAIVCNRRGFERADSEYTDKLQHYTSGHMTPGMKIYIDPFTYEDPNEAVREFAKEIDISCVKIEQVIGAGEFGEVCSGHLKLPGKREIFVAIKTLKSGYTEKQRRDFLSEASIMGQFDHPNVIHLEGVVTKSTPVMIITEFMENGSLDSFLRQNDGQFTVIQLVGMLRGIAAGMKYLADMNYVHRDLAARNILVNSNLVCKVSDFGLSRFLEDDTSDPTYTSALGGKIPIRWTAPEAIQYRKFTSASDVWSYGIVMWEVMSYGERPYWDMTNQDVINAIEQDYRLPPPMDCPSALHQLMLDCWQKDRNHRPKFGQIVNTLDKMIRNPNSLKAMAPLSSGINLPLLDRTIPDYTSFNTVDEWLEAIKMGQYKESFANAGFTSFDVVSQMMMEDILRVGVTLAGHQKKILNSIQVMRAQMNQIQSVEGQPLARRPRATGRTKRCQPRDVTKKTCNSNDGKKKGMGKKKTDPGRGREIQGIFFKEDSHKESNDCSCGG
T1 sequence (Q16288 whole entry): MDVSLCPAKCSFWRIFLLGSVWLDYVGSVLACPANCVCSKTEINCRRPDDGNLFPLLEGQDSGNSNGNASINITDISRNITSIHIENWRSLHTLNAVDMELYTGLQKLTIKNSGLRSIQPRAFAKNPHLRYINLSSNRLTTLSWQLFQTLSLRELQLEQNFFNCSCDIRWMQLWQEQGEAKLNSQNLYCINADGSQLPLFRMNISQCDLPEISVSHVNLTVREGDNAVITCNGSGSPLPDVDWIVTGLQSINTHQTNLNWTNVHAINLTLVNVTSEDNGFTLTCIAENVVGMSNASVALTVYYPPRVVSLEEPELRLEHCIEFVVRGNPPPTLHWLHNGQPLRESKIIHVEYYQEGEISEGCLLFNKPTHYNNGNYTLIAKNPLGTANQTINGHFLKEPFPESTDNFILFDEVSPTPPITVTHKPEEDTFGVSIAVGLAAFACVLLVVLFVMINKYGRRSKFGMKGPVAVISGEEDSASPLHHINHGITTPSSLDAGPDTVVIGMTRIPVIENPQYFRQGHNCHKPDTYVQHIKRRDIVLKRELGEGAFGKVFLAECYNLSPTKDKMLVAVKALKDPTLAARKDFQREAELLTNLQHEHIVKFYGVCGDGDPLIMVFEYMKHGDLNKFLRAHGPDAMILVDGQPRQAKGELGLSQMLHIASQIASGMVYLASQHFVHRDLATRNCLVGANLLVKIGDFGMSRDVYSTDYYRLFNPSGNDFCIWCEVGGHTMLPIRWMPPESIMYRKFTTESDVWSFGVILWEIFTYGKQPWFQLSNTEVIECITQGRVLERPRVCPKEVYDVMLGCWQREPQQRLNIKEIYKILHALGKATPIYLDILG
T6 sequence (Q13523 whole entry): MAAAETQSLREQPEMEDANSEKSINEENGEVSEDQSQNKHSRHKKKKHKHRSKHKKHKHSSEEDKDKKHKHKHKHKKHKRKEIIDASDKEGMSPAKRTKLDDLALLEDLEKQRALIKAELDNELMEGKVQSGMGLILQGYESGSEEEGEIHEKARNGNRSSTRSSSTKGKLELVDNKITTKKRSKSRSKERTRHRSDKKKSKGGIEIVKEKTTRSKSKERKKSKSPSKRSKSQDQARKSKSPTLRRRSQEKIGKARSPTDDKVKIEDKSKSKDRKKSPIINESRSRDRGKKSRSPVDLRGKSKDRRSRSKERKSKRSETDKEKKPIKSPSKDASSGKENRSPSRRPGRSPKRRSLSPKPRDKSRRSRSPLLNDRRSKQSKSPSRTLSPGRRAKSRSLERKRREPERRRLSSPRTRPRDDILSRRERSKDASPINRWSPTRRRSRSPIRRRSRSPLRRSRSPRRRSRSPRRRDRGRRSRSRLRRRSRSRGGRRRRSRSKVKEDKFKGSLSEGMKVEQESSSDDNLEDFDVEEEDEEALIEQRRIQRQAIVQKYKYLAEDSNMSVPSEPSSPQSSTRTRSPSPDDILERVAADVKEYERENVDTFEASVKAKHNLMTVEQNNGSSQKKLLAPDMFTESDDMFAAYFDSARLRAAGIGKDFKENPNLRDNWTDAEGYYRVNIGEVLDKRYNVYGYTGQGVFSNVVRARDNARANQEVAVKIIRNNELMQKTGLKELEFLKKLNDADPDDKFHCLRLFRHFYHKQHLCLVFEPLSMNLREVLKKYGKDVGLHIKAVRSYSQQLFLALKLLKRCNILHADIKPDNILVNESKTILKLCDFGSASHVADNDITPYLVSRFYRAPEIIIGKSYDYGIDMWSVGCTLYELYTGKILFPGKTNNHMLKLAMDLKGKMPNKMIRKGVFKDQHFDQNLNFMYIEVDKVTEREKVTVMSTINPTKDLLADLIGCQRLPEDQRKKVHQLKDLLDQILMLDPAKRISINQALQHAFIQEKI
SRMS, sequence (Q9H3Y6 whole entry): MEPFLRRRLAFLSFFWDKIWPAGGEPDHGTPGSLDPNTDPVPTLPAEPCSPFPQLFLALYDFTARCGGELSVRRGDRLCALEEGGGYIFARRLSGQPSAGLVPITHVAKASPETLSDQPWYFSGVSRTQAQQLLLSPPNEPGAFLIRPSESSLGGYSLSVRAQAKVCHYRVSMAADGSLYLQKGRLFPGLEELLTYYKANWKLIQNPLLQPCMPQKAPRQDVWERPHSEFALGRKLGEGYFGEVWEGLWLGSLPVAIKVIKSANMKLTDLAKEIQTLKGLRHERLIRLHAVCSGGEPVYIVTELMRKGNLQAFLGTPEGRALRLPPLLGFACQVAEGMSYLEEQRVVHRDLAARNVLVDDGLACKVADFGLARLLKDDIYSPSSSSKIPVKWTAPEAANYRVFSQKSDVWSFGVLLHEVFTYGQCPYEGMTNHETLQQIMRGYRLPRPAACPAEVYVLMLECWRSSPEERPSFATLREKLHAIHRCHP
SRPK3, sequence (Q9UPE1 whole entry): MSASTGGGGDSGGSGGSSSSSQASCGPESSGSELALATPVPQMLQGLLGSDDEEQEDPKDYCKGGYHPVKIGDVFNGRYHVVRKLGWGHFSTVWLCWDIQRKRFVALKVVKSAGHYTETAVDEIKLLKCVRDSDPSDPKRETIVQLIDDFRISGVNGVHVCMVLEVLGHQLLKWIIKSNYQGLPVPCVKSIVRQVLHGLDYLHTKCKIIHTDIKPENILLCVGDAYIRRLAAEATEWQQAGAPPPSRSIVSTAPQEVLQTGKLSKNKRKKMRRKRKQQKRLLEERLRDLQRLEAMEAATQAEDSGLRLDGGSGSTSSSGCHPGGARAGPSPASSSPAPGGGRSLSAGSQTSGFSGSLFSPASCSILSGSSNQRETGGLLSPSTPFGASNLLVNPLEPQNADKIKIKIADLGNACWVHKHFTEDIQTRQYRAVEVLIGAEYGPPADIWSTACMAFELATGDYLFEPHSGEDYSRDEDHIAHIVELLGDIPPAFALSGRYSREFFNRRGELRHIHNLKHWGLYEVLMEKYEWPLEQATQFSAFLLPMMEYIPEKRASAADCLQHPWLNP

`CNS(=O)(=O)c1ccc(N(C)C)c(Nc2nc(C)nc3cc(OC)c(OC)cc23)c1` [compound 15, 3-((6,7-dimethoxy-2-methylquinazolin-4-yl)amino)-4-(dimethylamino)-N-methylbenzenesulfonamide] was tested. Which inhibition at 1 µM (PRKD1) did it give?
Its inhibition at 1 µM is 15%.

What about the inhibition at 1 µM (SRPK3) of the same molecule?
The inhibition at 1 µM was 1%.

What about the inhibition at 1 µM (TRKC) of the same molecule?
Its inhibition at 1 µM is 22%.

What about the inhibition at 1 µM (YSK4) of the same molecule?
Its inhibition at 1 µM is 0%.

What about the inhibition at 1 µM (NEK6) of the same molecule?
The inhibition at 1 µM was 0%.

What about the inhibition at 1 µM (FLT3) of the same molecule?
Its inhibition at 1 µM is 10%.

What about the inhibition at 1 µM (MYLK) of the same molecule?
Its inhibition at 1 µM is 0%.

What about the inhibition at 1 µM (MTOR) of the same molecule?
Its inhibition at 1 µM is 0%.

And the inhibition at 1 µM (ALK)?
The inhibition at 1 µM was 10%.

And the inhibition at 1 µM (FLT3(D835Y))?
Its inhibition at 1 µM is 4%.

What about the inhibition at 1 µM (MAP3K3) of the same molecule?
Its inhibition at 1 µM is 44%.

What about the inhibition at 1 µM (FLT3(ITD)) of the same molecule?
Its inhibition at 1 µM is 0%.

What about the inhibition at 1 µM (HPK1) of the same molecule?
Its inhibition at 1 µM is 0%.

What about the inhibition at 1 µM (RIOK3) of the same molecule?
The inhibition at 1 µM was 0%.

What about the inhibition at 1 µM [1] of the same molecule?
The inhibition at 1 µM was 16%.

What about the inhibition at 1 µM (PIK3C2G) of the same molecule?
The inhibition at 1 µM was 22%.

What about the inhibition at 1 µM (PYK2) of the same molecule?
Its inhibition at 1 µM is 0%.

And the inhibition at 1 µM (EPHB2)?
Its inhibition at 1 µM is 2%.

And the inhibition at 1 µM (PRP4)?
The inhibition at 1 µM was 52%.

What about the inhibition at 1 µM (SRMS) of the same molecule?
Its inhibition at 1 µM is 17%.

And the inhibition at 1 µM (EPHA5)?
Its inhibition at 1 µM is 0%.

And the inhibition at 1 µM (MKNK1)?
Its inhibition at 1 µM is 4%.

What about the inhibition at 1 µM (ACVR1B) of the same molecule?
The inhibition at 1 µM was 0%.

And the inhibition at 1 µM (PIK3CG)?
Its inhibition at 1 µM is 0%.
